Experimental data as given in PubChem BioAssay (NCI).
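These data come from cells grown in 96-well plates and exposed to compound for 48 hours at five concentrations. Here, GI50 denotes the concentration required for 50% inhibition of growth. The concentration for full growth arrest is given as TGI.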

What was measured:
Experiment in all cases: NCI-60 cell line screen, 48 h
NCI-H226 lung = system: NCI-H226 lung
HCT-116 colon = system: HCT-116 colon
SF-295 CNS = system: SF-295 CNS
TK-10 renal = system: TK-10 renal
SR leukemia = system: SR leukemia
RPMI-8226 leukemia = system: RPMI-8226 leukemia
UACC-62 melanoma = system: UACC-62 melanoma
SF-539 CNS = system: SF-539 CNS
KM12 colon = system: KM12 colon
PC-3 prostate = system: PC-3 prostate

CCOC(=O)C(C)(C)Oc1ccc2c(C)c(-c3ccc(Cl)cc3)c(=O)oc2c1
TGI (NCI-H226 lung): 80.6 µM
TGI (HCT-116 colon): > 100 µM
TGI (SF-295 CNS): > 100 µM
TGI (TK-10 renal): > 100 µM
TGI (SR leukemia): > 100 µM
TGI (RPMI-8226 leukemia): > 100 µM
TGI (UACC-62 melanoma): > 100 µM
TGI (SF-539 CNS): > 100 µM

O=C(N/N=C1/C(=O)N(c2ccc(Cl)cc2Cl)C(=O)C(=O)C1c1nc2ccccc2o1)c1ccccc1O (stereo unspecified)
TGI (NCI-H226 lung): > 100 µM
TGI (HCT-116 colon): > 100 µM
TGI (TK-10 renal): > 100 µM
TGI (SR leukemia): > 100 µM
TGI (KM12 colon): > 100 µM
TGI (RPMI-8226 leukemia): > 100 µM
TGI (UACC-62 melanoma): 48.6 µM
TGI (SF-539 CNS): 97.1 µM

O=C1[C@@H]2C3c4ccccc4C([C@@H]2C(=O)N1c1ccccc1)S3(=O)=O
TGI (NCI-H226 lung): > 100 µM
TGI (HCT-116 colon): > 100 µM
TGI (SF-295 CNS): > 100 µM
TGI (TK-10 renal): > 100 µM
TGI (SR leukemia): > 100 µM
TGI (KM12 colon): > 100 µM
TGI (RPMI-8226 leukemia): > 100 µM
TGI (UACC-62 melanoma): > 100 µM
TGI (SF-539 CNS): > 100 µM

c1ccc(SC2CCSc3ccccc3C2Sc2ccccc2)cc1 (stereo unspecified)
TGI (NCI-H226 lung): > 100 µM
TGI (HCT-116 colon): > 100 µM
TGI (SF-295 CNS): > 100 µM
TGI (TK-10 renal): > 100 µM
TGI (KM12 colon): > 100 µM
TGI (RPMI-8226 leukemia): > 100 µM
TGI (SF-539 CNS): > 100 µM

CC(=C\c1ccccc1)/C=C(\C#N)C(N)=O
TGI (PC-3 prostate): > 10 µM
TGI (NCI-H226 lung): > 10 µM
TGI (SF-295 CNS): > 10 µM
TGI (TK-10 renal): > 10 µM
TGI (KM12 colon): > 10 µM
TGI (SF-539 CNS): > 10 µM

CCOC(=O)NC(=O)c1cn(CCOC(=O)NCCCCCCNC(=O)OCCn2cc(C(=O)NC(=O)OCC)c(=O)[nH]c2=O)c(=O)[nH]c1=O
TGI (NCI-H226 lung): > 100 µM
TGI (HCT-116 colon): > 100 µM
TGI (SF-295 CNS): > 100 µM
TGI (KM12 colon): > 100 µM
TGI (RPMI-8226 leukemia): > 100 µM
TGI (UACC-62 melanoma): > 100 µM

COc1c(OC)c(OC)c(C(=O)/C=C/c2ccccc2)c(OC)c1OC
TGI (PC-3 prostate): 31.1 µM
TGI (NCI-H226 lung): 38.4 µM
TGI (HCT-116 colon): 18.5 µM
TGI (SF-295 CNS): 29.9 µM
TGI (TK-10 renal): 26.4 µM
TGI (KM12 colon): 16.8 µM
TGI (RPMI-8226 leukemia): 20.3 µM
TGI (UACC-62 melanoma): 24.2 µM
TGI (SF-539 CNS): 30.9 µM

CCN(CC)CCOc1ccc(/C=C2\CC3C4CC=C5C[C@@H](O)CC[C@]5(C)C4CC[C@]3(C)C2=O)cc1OC (stereo partly specified)
GI50 (PC-3 prostate): 3.48 µM
TGI (PC-3 prostate): > 39.1 µM
GI50 (NCI-H226 lung): 2.77 µM
TGI (NCI-H226 lung): 8.77 µM
GI50 (HCT-116 colon): 2.44 µM
TGI (HCT-116 colon): 8.79 µM
GI50 (SF-295 CNS): 2.6 µM
TGI (SF-295 CNS): 10.3 µM
GI50 (TK-10 renal): 9.94 µM
TGI (TK-10 renal): 21.5 µM
GI50 (SR leukemia): 0.955 µM
TGI (SR leukemia): 3.9 µM
GI50 (KM12 colon): 3.34 µM
TGI (KM12 colon): 13.8 µM
GI50 (UACC-62 melanoma): 1.71 µM
TGI (UACC-62 melanoma): 3.3 µM
GI50 (SF-539 CNS): 3.38 µM
TGI (SF-539 CNS): 12.7 µM

O=c1[nH]cc(COCCO)c(=O)[nH]1
TGI (NCI-H226 lung): > 100 µM
TGI (HCT-116 colon): > 100 µM
TGI (SF-295 CNS): > 100 µM
TGI (TK-10 renal): > 100 µM
TGI (KM12 colon): > 100 µM
TGI (RPMI-8226 leukemia): > 100 µM
TGI (UACC-62 melanoma): > 100 µM
TGI (SF-539 CNS): > 100 µM

O=C(CSc1nnc(-c2ccc(N=Cc3ccc(Cl)cc3)cc2)o1)Nc1ccc(Cl)cc1
TGI (NCI-H226 lung): > 100 µM
TGI (HCT-116 colon): > 100 µM
TGI (SF-295 CNS): > 100 µM
TGI (TK-10 renal): > 100 µM
TGI (SR leukemia): > 100 µM
TGI (KM12 colon): > 100 µM
TGI (RPMI-8226 leukemia): > 100 µM
TGI (UACC-62 melanoma): > 100 µM

CC(=O)O[C@H]1CCC2[C@@H]3CCC4=C(O)c5nocc5C[C@]4(C)C3CC[C@@]21C (stereo partly specified)
TGI (NCI-H226 lung): > 100 µM
TGI (HCT-116 colon): > 100 µM
TGI (SF-295 CNS): > 100 µM
TGI (TK-10 renal): > 100 µM
TGI (KM12 colon): > 100 µM
TGI (RPMI-8226 leukemia): > 100 µM
TGI (UACC-62 melanoma): > 100 µM
TGI (SF-539 CNS): > 100 µM

Cc1ccc(Cn2c(C)nc3c2C(=O)c2ccccc2C3=O)cc1
TGI (NCI-H226 lung): 33.7 µM
TGI (HCT-116 colon): 16.3 µM
TGI (SF-295 CNS): 42.9 µM
TGI (TK-10 renal): 80.8 µM
TGI (SR leukemia): > 100 µM
TGI (KM12 colon): > 100 µM
TGI (UACC-62 melanoma): 16.1 µM
TGI (SF-539 CNS): 18.7 µM

O=C(NCCCCN=c1cccccc1NCCCCNC(=O)OCc1ccccc1)OCc1ccccc1
TGI (NCI-H226 lung): 32.1 µM
TGI (HCT-116 colon): 25 µM
TGI (SF-295 CNS): 26.9 µM
TGI (TK-10 renal): 53.9 µM
TGI (KM12 colon): 32.4 µM
TGI (RPMI-8226 leukemia): 32.8 µM
TGI (UACC-62 melanoma): 37.5 µM
TGI (SF-539 CNS): 31.8 µM

COc1ccc(/C(=N\NC(=O)C(N)=O)C(c2ccc(OC)cc2)C2(O)C(=O)Nc3c(Cl)cccc32)cc1 (stereo unspecified)
TGI (NCI-H226 lung): > 100 µM
TGI (HCT-116 colon): > 100 µM
TGI (SF-295 CNS): > 100 µM
TGI (TK-10 renal): > 100 µM
TGI (KM12 colon): > 100 µM
TGI (RPMI-8226 leukemia): > 100 µM
TGI (UACC-62 melanoma): > 100 µM

CCC1C2C=CC(CC2)N1S(=O)(=O)c1ccc(C)cc1 (stereo unspecified)
TGI (NCI-H226 lung): 33.9 µM
TGI (HCT-116 colon): > 100 µM
TGI (SF-295 CNS): > 100 µM
TGI (SR leukemia): 72.3 µM
TGI (KM12 colon): > 100 µM
TGI (RPMI-8226 leukemia): 42.3 µM
TGI (UACC-62 melanoma): 49.7 µM
TGI (SF-539 CNS): 76.6 µM

O=C(NC(=O)c1cn(CCNCCO)c(=O)[nH]c1=O)OCc1ccccc1
TGI (NCI-H226 lung): > 100 µM
TGI (HCT-116 colon): > 100 µM
TGI (SF-295 CNS): > 100 µM
TGI (TK-10 renal): > 100 µM
TGI (SR leukemia): > 100 µM
TGI (KM12 colon): > 100 µM
TGI (RPMI-8226 leukemia): > 100 µM
TGI (UACC-62 melanoma): > 100 µM
TGI (SF-539 CNS): > 100 µM

CN(C)c1c([O-])c(=[N+](C)C)c1=O
TGI (NCI-H226 lung): > 100 µM
TGI (HCT-116 colon): > 100 µM
TGI (SF-295 CNS): > 100 µM
TGI (TK-10 renal): > 100 µM
TGI (SR leukemia): > 100 µM
TGI (KM12 colon): > 100 µM
TGI (UACC-62 melanoma): > 100 µM
TGI (SF-539 CNS): > 100 µM

COc1ccc(NC(=O)/C(N=O)=C(/C)O)cc1
TGI (NCI-H226 lung): > 100 µM
TGI (HCT-116 colon): > 100 µM
TGI (SF-295 CNS): > 100 µM
TGI (TK-10 renal): > 100 µM
TGI (SR leukemia): > 100 µM
TGI (KM12 colon): > 100 µM
TGI (RPMI-8226 leukemia): > 100 µM
TGI (UACC-62 melanoma): > 100 µM
TGI (SF-539 CNS): > 100 µM

CCCCCCC[CH2][Sn]1([CH2]CCCCCCC)[O]C(=O)c2cccnc2[S]1
GI50 (NCI-H226 lung): > 100 µM
TGI (NCI-H226 lung): > 100 µM
GI50 (HCT-116 colon): > 100 µM
TGI (HCT-116 colon): > 100 µM
GI50 (SF-295 CNS): > 100 µM
TGI (SF-295 CNS): > 100 µM
GI50 (TK-10 renal): > 100 µM
TGI (TK-10 renal): > 100 µM
GI50 (SR leukemia): > 100 µM
TGI (SR leukemia): > 100 µM
GI50 (KM12 colon): > 100 µM
TGI (KM12 colon): > 100 µM
GI50 (RPMI-8226 leukemia): > 100 µM
TGI (RPMI-8226 leukemia): > 100 µM
GI50 (UACC-62 melanoma): > 100 µM
TGI (UACC-62 melanoma): > 100 µM
GI50 (SF-539 CNS): > 100 µM
TGI (SF-539 CNS): > 100 µM

Cc1c(Cl)cccc1N1C(=O)C(Cl)=C(Cl)C1=O
TGI (NCI-H226 lung): > 100 µM
TGI (HCT-116 colon): > 100 µM
TGI (SF-295 CNS): > 100 µM
TGI (TK-10 renal): > 100 µM
TGI (SR leukemia): 79.6 µM
TGI (KM12 colon): > 100 µM
TGI (RPMI-8226 leukemia): > 89.8 µM
TGI (UACC-62 melanoma): > 100 µM
TGI (SF-539 CNS): > 100 µM

CCOC(=O)C1(c2ccccc2)CCC(=O)CC1
TGI (NCI-H226 lung): > 100 µM
TGI (HCT-116 colon): > 100 µM
TGI (SF-295 CNS): > 100 µM
TGI (TK-10 renal): > 100 µM
TGI (KM12 colon): > 100 µM
TGI (UACC-62 melanoma): > 100 µM

C[C@H]1NC(=O)C2CCCCN2C(=O)CN(C)C(=O)CNC(=O)C2CCCCN2C(=O)[C@@H](NC(=O)c2nc3ccccc3cc2O)[C@@H](C)NC(=O)C2CCCCN2C(=O)CN(C)C(=O)CNC(=O)[C@@H]2CCCCN2C(=O)C1NC(=O)c1nc2ccccc2cc1O (stereo partly specified)
TGI (NCI-H226 lung): 0.383 µM
TGI (SF-295 CNS): 4.8 µM
TGI (TK-10 renal): > 100 µM
TGI (KM12 colon): 18.7 µM
TGI (RPMI-8226 leukemia): 0.764 µM
TGI (UACC-62 melanoma): 0.105 µM
TGI (SF-539 CNS): 0.698 µM

Cc1ccc(NC(=O)C2C(=O)N(c3ccc(C)c(C)c3)C(=O)C2N=N)cc1C (stereo unspecified)
TGI (NCI-H226 lung): > 100 µM
TGI (HCT-116 colon): > 100 µM
TGI (SF-295 CNS): > 100 µM
TGI (TK-10 renal): > 100 µM
TGI (KM12 colon): > 100 µM
TGI (UACC-62 melanoma): > 100 µM
TGI (SF-539 CNS): > 100 µM

O=C(Nc1cc(Cl)ccc1Cl)c1cc2cccc(Cl)c2oc1=O
TGI (HCT-116 colon): > 100 µM
TGI (SF-295 CNS): > 100 µM
TGI (TK-10 renal): > 100 µM
TGI (KM12 colon): > 100 µM
TGI (RPMI-8226 leukemia): > 100 µM
TGI (UACC-62 melanoma): > 100 µM
TGI (SF-539 CNS): > 100 µM
